What was measured:
[1] = biological target: JAK2 (Homo sapiens (Human), UniProt O60674); assay: TR-FRET JAK2 kinase assay; assay type: biochemical; settings: ATP 10 μM
Description: Compounds were screened in the TR-FRET assay for JAK2 and c-Src kinase inhibition. Ultra light poly GT (Perkin Elmer) was used as the substrate for JAK2 and c-Src with the ATP concentration of 10 μM and 50 μM, respectively. […] The dose-response curve fitting was done using GraphPad Prism software.

[2] = biological target: JAK1 (Homo sapiens (Human), UniProt P23458); assay: JAK1 kinase inhibition; assay type: biochemical
[3] = test system: Mda-Mb-231 cells; assay: Cell viability assay (XTT assay), Mda-Mb-231; assay type: cell-based; settings: Homo sapiens, 72 hrs
Method in brief: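 MDA-MB-231 cells seeded and dosed next day in triplicate, incubated 72 h. Medium replaced with XTT working solution for 2-5 h, absorbance read at 465 nm, and EC50 values derived from the readings.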

[4] = test system: B16F10 tumor cells; assay: B16F10 survival model; assay type: in vivo, C57B16 mice
Description: IV injection of 0.1×10^6 B16F10 tumor cells in the tail vain of 60 male C57B16 mice. Randomization of mice one day after tumor cell injection into 4 groups of 15 mice. Out of 15, 6 mice were sacrificed on 14th day for counting metastatic foci on lungs. Rest 9 mice were dosed continuously till morbidity/mortality for recording survival.
Plasma collected for drug concentration estimation and whole blood was collected to isolate PBMCs to determine pStat3 inhibition by flow cytometry as PD readout.

[5] = test system: A549 tumor cells; assay: A549 xenograft model; assay type: in vivo
Description: Sub-cutaneous (SC) injection of 5×10^6 A549 tumor cells on the left flank of 48 female athymic nude mice. Randomization of mice 14 days after tumor cell injection into 6 groups of 8 mice each with a mean tumor volume of 134±5 mm3.
Formulation: 20% HPC, 2% ethanol solution in PBS for the compounds No. 45, 117 and 179.
• Normal saline for Erlotinib® Dosing route: Oral for the compounds No. 45, 117 and 179, and Erlotinib® Dose Volume: 10 mL/Kg body weight Dosing schedule: Once daily for 14 consecutive days (Q1Dx14) Dosage: • Group1. Vehicle control • Group2. Erlotinib®-100 MPK • Group3. Compound No. 45—10 MPK • Group4. Compound No. 45—30 MPK • Group5. Compound No. 45—100 MPK • Group6. Compound No. 117—30 MPK • Group7. Compound No. 117—100 MPK • Group8. Compound No. 179—10 MPK • Group9. […] Plasma collected for drug concentration estimation and whole blood was collected to isolate PBMCs (peripheral blood monocytes) to determine pStat3 inhibition by flow cytometry as PD readout. Tumors were snap frozen in liquid nitrogen and stored at −80° C. to estimate pStat3 by flow cytometry as PD readout EXPT. 2
SC injection of 5×10^6 A549 tumor cells on the left flank of 24 female athymic nude mice. Randomization of mice 14 days after tumor cell injection into 3 groups of 8 mice each with a mean tumor volume of 75±7 mm3.
Formulation: 20% HPC, 2% ethanol solution in PBS for the compound No. 45
• Normal saline for Erlotinib® Dosing route: Oral for compound No. 45 and Erlotinib® Dose Volume: 10 mL/Kg body weight Dosing schedule: Once daily for 14 consecutive days (Q1Dx14) Dosage: • Group1. Vehicle control • Group2. Compound No. 45—150 MPK • Group3. […] Plasma collected for drug concentration estimation and whole blood was collected to isolate PBMCs to determine pStat3 inhibition by flow cytometry as PD readout. Tumors were snap frozen in liquid nitrogen and stored at −80° C. to estimate pStat3 by flow cytometry as PD readout Results: […]

[6] = test system: pStat3; assay: Quantification of pStat3 in PBMCs by flow cytometry; assay type: in vivo, mice
Description: Phosphorylation of Stat3 was stimulated by addition of hIL6 (10 ug/mL) for 30 min at 37° C. Blood was fixed with formaldehyde (final 2% v/v) for 10 min at 37° C.
Buffy coat (PBMCs) was separated by aspirating translucent layer using pipetteman and washed twice with PBS-1×
Pre chilled PBMC's were permeabilized by adding ice cold Methanol, while vortexing gently (final volume 90% MeOH v/v) and incubated for 30 min on ice.
Permeabilized PBMCs were washed with PBS once. PBMCs re-suspended to 2×10^6 cells in 200 μL of incubation buffer for 10 min at room temperature (RT). Primary Ab was added (1:100 dilution) and incubated 45 min at RT. Washed as before (twice) and re-suspended in fluorochrome conjugated secondary Ab (1:500 dilution) and incubated at RT in dark for 30 min. Washed and re-suspended in […] PBS.
(§1) Measured pStat3 using FACS caliber machine (BD). Unstained PBMCs was used for cytometry settings. […] Histograms (cell number V/s FL1-H) were plotted. Percentage of cells that are phosphorylated by IL6 stimulation (M2 population), and inhibition of phosphorylation by inhibitor (decrease in M2 population) are calculated on histogram by marking peaks, M1 and M2.

[7] = test system: pStat3; assay: Quantification of pStat3 in tumors by flow cytometry; assay type: in vivo, mice
Description: as §1
Separate the tumour & 200 mg of tumour was crashed (45 mg per ml) by using IKA 10 at Speed #4 for 10 seconds. Sieve the tumour extract through 100 u, centrifuge at 900 g for 10 min. Re-suspend cells briefly in 0.5-1 ml PBS. Add formaldehyde to a final concentration of 2-4% formaldehyde. Fix for 10 minutes at 37° C. Chill tubes on ice for 1 minute.
Permeabilize cells by adding ice-cold 100% methanol slowly to pre-chilled cells, while gently vortexing, to a final concentration of 90% methanol. Alternatively, to remove fix prior to permeabilization, pellet cells by centrifugation and re-suspend in 90% methanol. Incubate 30 minutes on ice. Proceed with staining or store cells at −20° C. in 90% methanol. Aliquot 0.5-1×10^6 cells into each assay tube (by volume). Add 2-3 ml Incubation Buffer to each tube and rinse by centrifugation. Repeat. Re-suspend cells in 100 μl Incubation Buffer per assay tube. Analyze by flow cytometry like PBMCs.

Sequence of JAK2 (O60674 whole entry): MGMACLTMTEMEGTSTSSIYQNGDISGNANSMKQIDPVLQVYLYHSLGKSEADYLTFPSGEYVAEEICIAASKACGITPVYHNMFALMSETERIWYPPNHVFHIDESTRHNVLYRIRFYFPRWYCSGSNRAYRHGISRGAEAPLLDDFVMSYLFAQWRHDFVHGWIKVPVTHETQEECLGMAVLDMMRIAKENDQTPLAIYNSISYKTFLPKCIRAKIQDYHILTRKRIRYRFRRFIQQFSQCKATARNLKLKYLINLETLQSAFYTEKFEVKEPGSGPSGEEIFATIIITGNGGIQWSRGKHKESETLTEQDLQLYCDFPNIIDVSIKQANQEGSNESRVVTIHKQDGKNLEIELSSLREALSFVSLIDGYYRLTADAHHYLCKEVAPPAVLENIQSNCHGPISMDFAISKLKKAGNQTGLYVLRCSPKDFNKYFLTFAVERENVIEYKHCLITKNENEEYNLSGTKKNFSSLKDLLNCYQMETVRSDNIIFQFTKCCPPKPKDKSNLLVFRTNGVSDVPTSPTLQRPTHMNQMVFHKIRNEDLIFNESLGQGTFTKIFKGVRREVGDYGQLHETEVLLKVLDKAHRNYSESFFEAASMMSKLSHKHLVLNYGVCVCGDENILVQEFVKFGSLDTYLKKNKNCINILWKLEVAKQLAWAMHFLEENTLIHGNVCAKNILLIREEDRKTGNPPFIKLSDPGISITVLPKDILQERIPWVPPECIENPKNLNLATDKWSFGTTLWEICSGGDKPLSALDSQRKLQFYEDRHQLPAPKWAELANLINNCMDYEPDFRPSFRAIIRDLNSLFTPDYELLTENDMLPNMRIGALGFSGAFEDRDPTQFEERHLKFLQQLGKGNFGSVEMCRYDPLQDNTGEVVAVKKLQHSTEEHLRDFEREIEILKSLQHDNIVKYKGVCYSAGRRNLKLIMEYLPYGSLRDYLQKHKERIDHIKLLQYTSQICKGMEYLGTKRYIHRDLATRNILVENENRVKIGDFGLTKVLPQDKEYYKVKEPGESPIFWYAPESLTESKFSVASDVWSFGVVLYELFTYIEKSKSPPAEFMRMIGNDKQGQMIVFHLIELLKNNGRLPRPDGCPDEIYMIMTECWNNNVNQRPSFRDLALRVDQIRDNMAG
Sequence of JAK1 (P23458 whole entry): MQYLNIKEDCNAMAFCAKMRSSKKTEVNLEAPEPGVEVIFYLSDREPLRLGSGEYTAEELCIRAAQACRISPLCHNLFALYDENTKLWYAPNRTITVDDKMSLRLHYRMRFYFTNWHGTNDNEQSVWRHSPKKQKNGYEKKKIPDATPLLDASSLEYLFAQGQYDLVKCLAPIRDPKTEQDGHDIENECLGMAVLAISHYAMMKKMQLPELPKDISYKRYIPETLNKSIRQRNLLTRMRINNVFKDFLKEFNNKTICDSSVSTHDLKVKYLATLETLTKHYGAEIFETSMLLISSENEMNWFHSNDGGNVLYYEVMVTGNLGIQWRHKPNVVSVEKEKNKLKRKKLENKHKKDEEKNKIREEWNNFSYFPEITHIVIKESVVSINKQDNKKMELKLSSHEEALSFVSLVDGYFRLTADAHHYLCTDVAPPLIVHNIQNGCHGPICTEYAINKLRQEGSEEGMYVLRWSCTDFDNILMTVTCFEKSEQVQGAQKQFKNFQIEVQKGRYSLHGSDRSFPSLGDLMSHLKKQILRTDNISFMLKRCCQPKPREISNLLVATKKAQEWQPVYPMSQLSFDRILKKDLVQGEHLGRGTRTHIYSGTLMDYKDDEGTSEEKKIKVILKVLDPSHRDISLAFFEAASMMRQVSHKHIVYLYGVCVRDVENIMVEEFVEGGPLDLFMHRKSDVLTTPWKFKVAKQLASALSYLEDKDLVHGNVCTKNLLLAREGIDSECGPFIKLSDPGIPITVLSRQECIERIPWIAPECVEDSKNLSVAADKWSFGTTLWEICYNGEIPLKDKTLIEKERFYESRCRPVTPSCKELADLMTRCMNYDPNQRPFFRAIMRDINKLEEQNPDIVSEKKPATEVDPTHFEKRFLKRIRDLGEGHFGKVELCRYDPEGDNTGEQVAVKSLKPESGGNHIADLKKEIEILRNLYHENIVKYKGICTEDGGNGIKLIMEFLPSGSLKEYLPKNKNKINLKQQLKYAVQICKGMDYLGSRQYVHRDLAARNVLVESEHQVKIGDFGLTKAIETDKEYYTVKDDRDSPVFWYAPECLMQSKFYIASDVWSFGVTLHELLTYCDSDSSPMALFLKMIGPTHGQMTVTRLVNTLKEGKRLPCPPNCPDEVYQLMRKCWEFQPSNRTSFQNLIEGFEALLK

With Cc1ccc(NC(=O)c2cccc(C(F)(F)F)c2)cc1N1CCc2nc(Nc3ccc(N4CCN(C)CC4)cc3)ncc2C1=O [Compound 45, N-(4-Methyl-3-{2-[4-(4-methyl-piperazin-1-yl)-phenylamino]-5-oxo-7,8-dihydro-5H-pyrido[4,3-d]pyrimidin-6-yl}-phenyl)-3-trifluoromethyl-benzamide] the IC50 [1] was 15 nM, the IC50 [2] was 116 nM and the inhibition at 0.1 µM ([2]; read-out: JAK1 % inhibition at 100 nM) was 56%. The inhibition at 1 µM ([2]; read-out: JAK1 % inhibition at 1 μM) was 82%, the EC50 [3] was 1830 nM and the Survival advantage ([4]; B16F10 survival model, dosing Q1Dx14) was 37.5%. For the same compound, the Survival advantage ([4]; Efficacy - B16F10 at 100 MPK) was 9 days, the “% TGI (Tumor Growth Inhibition)” value ([5]; A549 Xenograft model, 10 MPK) was 28.90% and the “% TGI (Tumor Growth Inhibition)” value ([5]; A549 Xenograft model, 30 MPK) was 55.62%. The “% TGI (Tumor Growth Inhibition)” value ([5]; A549 Xenograft model, 100 MPK) was 63.86%, the “% TGI (Tumor Growth Inhibition)” value ([5]; A549 Xenograft model, 150 MPK) was 53.74% and the TGI ([5]; A549 Xenograft model, 150 MPK) was 54. The tumor growth inhibition ([5]; A549 xenograft model, 100 MPK (Q1Dx14)) was 64%, the TGI ([5]; Efficacy - A549, at 100 MPK) was 64% at and the compound related toxicity ([5]; up to 150 MPK during A549 efficacy study) was “No major effects of compound related toxicity”. The “PBMCs % pStat3 inhibition” value ([6]; A431 Xenograft model, 100 MPK) was 56.32%, the “PBMCs % pStat3 inhibition” value ([6]; A549 Xenograft model, 10 MPK) was 55.61% and the “PBMCs % pStat3 inhibition” value ([6]; A549 Xenograft model, 30 MPK) was 60.66%. For the same compound, the “PBMCs % pStat3 inhibition” value ([6]; A549 Xenograft model, 100 MPK) was 65.28%, the “PBMCs % pStat3 inhibition” value ([6]; A549 Xenograft model, 150 MPK) was 76.56% and the “PBMCs % pStat3 inhibition” value ([6]; B16F10 model, 30 MPK) was 66%. The “PBMCs % pStat3 inhibition” value ([6]; B16F10 model, 100 MPK) was 73%, the “% pSTAT3 inhibition in PBMCs (MTD study)” value ([6]; at 100 MPK) was 84% at and the “Tumors % pStat3 inhibition” value ([7]; A431 Xenograft model, 100 MPK) was 44.3%. For the same compound, the “Tumors % pStat3 inhibition” value ([7]; A549 Xenograft model, 10 MPK) was 44.46%, the “Tumors % pStat3 inhibition” value ([7]; A549 Xenograft model, 30 MPK) was 48.92% and the “Tumors % pStat3 inhibition” value ([7]; A549 Xenograft model, 100 MPK) was 61.51%. The “Tumors % pStat3 inhibition” value ([7]; A549 Xenograft model, 150 MPK) was 57.08%, the “% pSTAT3 inhib. (tumour)” value ([7]; Efficacy - A431 at 100 MPK) was 45% and the “% pSTAT3 inhib. (tumour)” value ([7]; Efficacy - A549, at 100 MPK) was 62% at.
Work on Cc1ccc(NC(=O)c2cccc(C(F)(F)F)c2)cc1N1CCc2nc(Nc3ccc(C(=O)NC4CC4)nc3)ncc2C1 [Compound 117, 5-{6-[2-Methyl-5-(3-trifluoromethyl-benzoylamino)-phenyl]-5,6,7,8-tetrahydro-pyrido[4,3-d]pyrimidin-2-ylamino}-pyridine-2-carboxylic acid cyclopropylamide] yielded an IC50 [1] of 18 nM, an IC50 [2] of 24 nM and an EC50 [3] of 660 nM. The Survival advantage ([4]; Efficacy - B16F10 at 100 MPK) was 1 day days, the TGI ([5]; Efficacy - A549, at 100 MPK) was 56% at and the “% pSTAT3 inhibition in PBMCs (MTD study)” value ([6]; at 100 MPK) was 83% at. For the same compound, the “% pSTAT3 inhib. (tumour)” value ([7]; Efficacy - A431 at 100 MPK) was 10% and the “% pSTAT3 inhib. (tumour)” value ([7]; Efficacy - A549, at 100 MPK) was 47% at.
CNC(=O)c1ccc(Nc2ncc3c(n2)CCN(c2cc(NC(=O)c4cc(C(F)(F)F)ccn4)ccc2Cl)C3)cc1 [Compound 179, 4-Trifluoromethyl-pyridine-2-carboxylic acid {4-chloro-3-[2-(4-methylcarbamoyl-phenylamino)-7,8-dihydro-5H-pyrido[4,3-d]pyrimidin-6-yl]-phenyl}-amide] gave an IC50 [1] of 6.4 nM, an inhibition at 0.1 µM ([1]; read-out: JAK2 % inhibition at 100 nM, 100 nM) of 81% and an inhibition at 1 µM ([1]; read-out: JAK2 % inhibition at 1 μM, 1 μM) of 92%. For the same compound, the IC50 [2] was 12 nM, the EC50 [3] was 900 nM and the Survival advantage ([4]; Efficacy - B16F10 at 100 MPK) was 4 days. For the same compound, the TGI ([5]; Efficacy - A549, at 30 MPK) was 68% at, the “% pSTAT3 inhibition in PBMCs (MTD study)” value ([6]; at 30 MPK) was 65% at and the “% pSTAT3 inhib. (tumour)” value ([7]; Efficacy - A431 at 100 MPK) was 54%. The “% pSTAT3 inhib. (tumour)” value ([7]; Efficacy - A549, at 30 MPK) was 79% at.
